Data taken from US20040242501A1, “Spermicidal and virucidal properties of various forms of sophorolipids” (priority 2003, published 2004).

What was measured:
HIV-1 RF = experiment: Cell-free HIV inactivation assay; type: cell-based, human immunodeficiency virus (HIV); settings: for virucidal / antiviral activity, in words: HIV as model organism, positive = minimum reduction in virus titer of 2 logs; for Log Reduction in Virus Titer: two-minute exposure, day 7, virus control 6.0 log10 TCID50/0.1 mL
Description: (§1) Pre-titered concentrated virus (HIV-1 RF) stock (10 μL) was mixed with 90 μL of the test agent formulation in microtubes. At the end of the two-minute exposure period, serial 10-fold dilutions were carried out with a multichannel pipettor so that the sample dilutions were performed simultaneously. Aliquots (100 μL) of the serial dilutions were then transferred simultaneously to another 96-well plate which had been pre-seeded with MT-2 cells in RPMI medium supplemented with FBS. Four wells were used for each dilution of virus. The cultures were incubated at 37° C. in a humidified atmosphere of 5% CO2. The cultures were scored microscopically for virus-induced cytopathic effect and agent-induced cytotoxicity on day 4 and 7 of incubation, and day 7 reported. Cultures were routinely maintained 2 to 3 days after initial analysis, and observed visually and microscopically for abnormalities.

MT-2 cells = experiment: Agent-induced cytotoxicity in cell-free inactivation assay; type: cell-based; set-up: TCTD50 Cytotoxicity: unit not given here; settings: for TCTD50 Cytotoxicity: MT-2 cells, day 7
Description: as §1

[1] = tested on: human spermatozoa (swim-up sperm); experiment: Sperm viability after washing (HOS medium); type: cell-based; settings: 0.3 mg/mL, post-wash, mean ± SD, n=5
Description: (§2) Motility and viability time-responses were studied with a sophorolipid testing concentration of 0.3 mg/mL. At this concentration no effect of the solvent was observed. All sperm used for this experiment and throughout the study were obtained from human semen samples through a one hour swim-up separation technique in BWW medium+0.1% HSA. 100 uL of swim-up sperm were incubated with 1 uL of compound for the time points of 2 min, 30 min, 2 hrs, and 4 hrs and assessed for progressive motility (“real-time” assessment). n=5 for all time points. Co-incubation samples were diluted with 1 mL of BWW medium+0.1% HSA. The tubes were centrifuged, the supernatant removed, and the sperm resuspended in the original volume of 100 uL BWW+0.1% HSA and incubated at 37° C., 5% CO2. At 30 min post-washing, motility was again assessed. After the 30 min post-wash assessment, 900 uL of HOS medium was added to the sample and tubes were incubated for 30 min at 37° C. Post-incubation, samples were assessed for viability. Motility and viability were quantified “manually” under dark field microscopy (Nikon E-800).

[2] = tested on: human spermatozoa (swim-up sperm); experiment: Sperm motility time response (real-time and post-dilution/post-wash); type: cell-based; settings: 0.3 mg/mL, mean ± SD, n=5; for Real-Time Motility (%): initial solvent DMSO; for Post-Dilution Motility (%): then washed, 30 min post-washing
Description: as §2

[3] = Percent of agent during exposure 0.03
[4] = Percent of agent during exposure 0.09
[5] = Percent of agent during exposure 0.3

Row | SMILES | virucidal / antiviral activity, in words (HIV-1 RF) | selectivity index (virucidal activity vs cytotoxicity), in words (HIV-1 RF; comparison among the four sophorolipids of Table 2) | cytotoxicity, in words (MT-2 cells) | Post-Dilution Viability (%) ([1]; 2 min incubation) | Post-Dilution Viability (%) ([1]; 30 min incubation) | Post-Dilution Viability (%) ([1]; 2 hour incubation) | Real-Time Motility (%) ([2]; 2 min incubation) | Post-Dilution Motility (%) ([2]; 2 min incubation) | Real-Time Motility (%) ([2]; 30 min incubation) | Post-Dilution Motility (%) ([2]; 30 min incubation) | Real-Time Motility (%) ([2]; 2 hour incubation) | Post-Dilution Motility (%) ([2]; 2 hour incubation) | virucidal / antiviral activity, in words (HIV-1 RF; listed as ethyl ester form of sophorolipid) | Log Reduction in Virus Titer (HIV-1 RF; [3]) | Log Reduction in Virus Titer (HIV-1 RF; [4]) | Log Reduction in Virus Titer (HIV-1 RF; [5]) | TCTD50 Cytotoxicity (MT-2 cells; [3]) | TCTD50 Cytotoxicity (MT-2 cells; [4]) | TCTD50 Cytotoxicity (MT-2 cells; [5])
1 | CCOC(=O)CCCCCCC/C=C\CCCCCCC(C)O[C@@H]1O[C@H](CO)[C@@H](O)[C@H](O)[C@H]1O[C@@H]1O[C@H](CO)[C@@H](O)[C@H](O)[C@H]1O (stereo partly shown) | high activity | best selectivity index | reduced cytotoxicity |  |  |  |  |  |  |  |  |  |  |  |  |  |  |  | 
2 | CCOC(=O)CCCCCCC/C=C\CCCCCCC(C)O[C@@H]1O[C@H](CO)[C@@H](O)[C@H](O)[C@H]1O[C@@H]1O[C@H](CO)[C@@H](O)[C@H](O)[C@H]1O (relative stereo) [SLET, Ethyl 17-L-[(2′-O-β-D-glucopyranosyl-β-D-glucopyranosyl)-oxy]-cis-9-octadecenoate] |  |  |  | 2.36 ± 5.29% | 1.00 ± 2.24% | 0.00 ± 0.00% | 0.73 ± 0.81% | 3.37 ± 3.87% | 0.00 ± 0.00% | 0.00 ± 0.00% | 0.00 ± 0.00% | 0.00 ± 0.00% | highly effective | 2.0 Log | 3.3 Log | 4.3 Log | ≦0.5 | ≦0.5 | 1.5
3 | CCOC(=O)CCCCCCC/C=C\CCCCCCC(C)O[C@@H]1O[C@H](COC(C)=O)[C@@H](O)[C@H](O)[C@H]1O[C@@H]1O[C@H](COC(C)=O)[C@@H](O)[C@H](O)[C@H]1O (relative stereo) [SLETDA, Ethyl 17-L[(2′-O-β-D glucopyranosyl-β-D-glucopyranosyl)-oxy]-cis-9-octadecenoate 6′,6″-diacetate] |  |  |  | 0.40 ± 0.90% | 0.20 ± 0.45% | 0.00 ± 0.00% | 0.00 ± 0.00% | 0.00 ± 0.00% | 0.00 ± 0.00% | 0.00 ± 0.00% | 0.00 ± 0.00% | 0.00 ± 0.00% |  | 1.7 Log | ≧4.5 Log | ≧4.5 Log | ≦0.5 | 1.5 | 1.5
4 | CCCCCCOC(=O)CCCCCCC/C=C\CCCCCCC(C)O[C@@H]1O[C@H](CO)[C@@H](O)[C@H](O)[C@H]1O[C@@H]1O[C@H](CO)[C@@H](O)[C@H](O)[C@H]1O (relative stereo) [SLHEX, Hexyl 17-L-[(2′-O-β-D-glucopyranosyl-β-D-glucopyranosyl)-oxy]-cis-9-octadecenoate] |  |  |  | 2.27 ± 3.22% | 1.10 ± 2.46% | 0.00 ± 0.00% | 1.26 ± 1.22% | 1.55 ± 2.18% | 0.00 ± 0.00% | 0.00 ± 0.00% | 0.00 ± 0.00% | 0.00 ± 0.00% |  | 0 Log | 3.0 Log | 4.0 Log | ≦0.5 | ≦0.5 | 1.5
